Laboratory results as given in ChEMBL document CHEMBL1201862, “PubChem BioAssay data set” (2004).
Active and inactive are the calls of the source.

Columns and labels:
[1] = DRD fibroblast viability loss – cell-based, non-viral oncogenic, luminescence, dose response (AID 1934); format: functional; conditions: Homo sapiens
BJ [2] = assay: BJ-TERT-LT-ST fibroblast viability loss – cell-based, RAS-independent, luminescence, dose response (AID 1935); format: functional, Homo sapiens; conditions: Homo sapiens, BJ;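 also: BJ fibroblasts immortalized with TERT plus LT and ST oncogenes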
[3] = target: T1, DNA repair protein RAD52 homolog (Homo sapiens, UniProt P43351); format: functional, biochemical
T1 sequence (P43351 whole entry): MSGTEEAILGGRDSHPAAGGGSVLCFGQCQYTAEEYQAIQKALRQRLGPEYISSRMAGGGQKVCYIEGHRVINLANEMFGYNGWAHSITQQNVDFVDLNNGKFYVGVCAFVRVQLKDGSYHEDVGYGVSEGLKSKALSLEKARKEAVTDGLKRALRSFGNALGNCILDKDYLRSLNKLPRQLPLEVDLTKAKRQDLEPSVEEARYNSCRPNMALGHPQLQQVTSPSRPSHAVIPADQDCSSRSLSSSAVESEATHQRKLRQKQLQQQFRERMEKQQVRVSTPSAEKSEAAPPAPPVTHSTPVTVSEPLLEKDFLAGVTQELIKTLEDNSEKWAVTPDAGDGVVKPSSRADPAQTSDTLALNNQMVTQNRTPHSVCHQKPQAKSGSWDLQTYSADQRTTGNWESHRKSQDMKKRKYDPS

[4] = general cell-killing toxicity readout – plate reader, dry powder samples, cytotoxicity control for PAX8 inhibitor project, dose response (AID 743021); format: functional, cell-based
[5] = viability loss in HeLa cells – cytotoxicity control for MgcRacGAP inhibitor project, dose response (AID 624300); format: functional
BJ [6] = assay: growth inhibition of engineered Ras-driven BJ cells – cell-based, alamar blue fluorescence, cherrypicked samples, dose response (AID 2631); format: functional; conditions: Homo sapiens;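 also: confirmatory dose-response assay in RAS-dependent BJ fibroblasts engineered with TERT, LT and ST, with cytotoxicity read by fluorescence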
[7] = HEK-293T viability loss after treatment – luminescence, T-cell screen hits, cytotoxicity control for TCR NF-kB inhibitor project, dose response (AID 489026); format: functional, cell-based;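 also: cells exposed to compound about 14 hours before the viability readout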
[8] = target: T2, Rac GTPase-activating protein 1 (Homo sapiens, UniProt Q9H0H5); assay: blockers of MgcRacGAP-driven Rac1 GTP hydrolysis – biochemical, ADP Hunter fluorescence, primary and confirmatory, confirmation (AID 624330); format: functional
T2 sequence (Q9H0H5 whole entry): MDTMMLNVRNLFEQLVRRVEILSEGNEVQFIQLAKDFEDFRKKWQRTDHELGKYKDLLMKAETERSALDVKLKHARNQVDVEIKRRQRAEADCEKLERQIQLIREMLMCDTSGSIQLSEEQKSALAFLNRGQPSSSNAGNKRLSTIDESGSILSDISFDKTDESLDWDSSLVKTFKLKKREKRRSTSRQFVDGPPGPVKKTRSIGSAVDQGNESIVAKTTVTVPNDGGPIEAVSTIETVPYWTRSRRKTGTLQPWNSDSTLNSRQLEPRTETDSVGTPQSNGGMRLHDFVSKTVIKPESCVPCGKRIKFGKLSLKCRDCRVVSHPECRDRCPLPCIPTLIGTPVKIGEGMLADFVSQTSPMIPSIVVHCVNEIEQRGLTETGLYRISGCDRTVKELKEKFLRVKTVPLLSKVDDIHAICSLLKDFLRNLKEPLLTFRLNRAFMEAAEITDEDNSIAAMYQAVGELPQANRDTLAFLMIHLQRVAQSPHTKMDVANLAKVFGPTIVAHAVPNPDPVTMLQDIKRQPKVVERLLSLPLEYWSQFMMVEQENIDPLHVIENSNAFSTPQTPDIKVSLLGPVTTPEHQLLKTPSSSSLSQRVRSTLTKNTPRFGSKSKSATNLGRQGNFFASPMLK

BJ [9] = assay: BJ-TERT fibroblast viability loss – cell-based, RAS-independent, luminescence, dose response (AID 1933); format: functional, Homo sapiens; conditions: Homo sapiens, BJ
BJ [10] = assay: cells; format: functional, cell-based, Homo sapiens; conditions: Homo sapiens, BJ
Paired box protein Pax-8 = Paired box protein Pax-8 (Homo sapiens, UniProt Q06710); assay: PAX8 transcriptional activity inhibition in RMG-I – RMG-I cells, luciferase, cherry-pick, dose response (AID 687027); format: functional, cell-based;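 also: luciferase reporter driven by Pax8 target thyroperoxidase promoter measured by SteadyGlo luminescence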
[11] = target: T3, Short transient receptor potential channel 4 (Mus musculus, UniProt Q9QUQ5); assay: block of DAMGO-driven TRPC4 calcium entry – cell-based, HEK293 TRPC4/mu-opioid, Fluo-4 calcium, dose response (AID 434942); format: functional;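 also: potency of inhibitors blocking the TRPC4 calcium response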
T3 sequence (Q9QUQ5 whole entry): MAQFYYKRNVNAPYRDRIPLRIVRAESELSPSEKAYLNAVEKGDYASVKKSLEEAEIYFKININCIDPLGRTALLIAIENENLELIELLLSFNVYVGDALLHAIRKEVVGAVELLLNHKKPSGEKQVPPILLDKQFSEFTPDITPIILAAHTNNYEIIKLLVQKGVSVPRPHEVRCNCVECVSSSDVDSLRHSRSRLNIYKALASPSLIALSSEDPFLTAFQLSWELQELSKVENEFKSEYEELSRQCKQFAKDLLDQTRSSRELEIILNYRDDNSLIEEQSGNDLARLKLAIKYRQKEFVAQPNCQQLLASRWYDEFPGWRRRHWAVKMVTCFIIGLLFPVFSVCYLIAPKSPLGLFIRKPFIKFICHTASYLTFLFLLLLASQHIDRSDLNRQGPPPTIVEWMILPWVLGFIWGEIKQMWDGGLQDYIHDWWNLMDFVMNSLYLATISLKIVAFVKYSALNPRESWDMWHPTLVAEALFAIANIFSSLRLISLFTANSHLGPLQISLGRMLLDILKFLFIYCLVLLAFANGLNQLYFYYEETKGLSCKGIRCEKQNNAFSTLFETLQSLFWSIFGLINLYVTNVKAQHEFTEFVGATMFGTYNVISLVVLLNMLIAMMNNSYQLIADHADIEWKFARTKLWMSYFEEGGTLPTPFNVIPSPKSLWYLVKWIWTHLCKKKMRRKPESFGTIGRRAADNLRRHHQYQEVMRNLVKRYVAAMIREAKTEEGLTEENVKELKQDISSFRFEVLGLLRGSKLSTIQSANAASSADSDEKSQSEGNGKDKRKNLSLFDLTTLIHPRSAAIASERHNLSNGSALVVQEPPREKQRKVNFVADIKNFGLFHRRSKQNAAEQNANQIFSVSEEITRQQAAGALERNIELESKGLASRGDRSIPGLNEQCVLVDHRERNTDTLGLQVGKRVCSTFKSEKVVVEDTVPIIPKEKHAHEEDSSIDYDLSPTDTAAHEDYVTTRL

[12] = target: Lysine-specific demethylase 4C (Homo sapiens, UniProt Q9H3R0); assay: inhibition of JMJD2C H3K9me3 demethylation – biochemical, DELFIA europium, cherry-picked samples, dose response (AID 488835); format: functional
[13] = target: T4, Endoribonuclease toxin MazF (Escherichia coli K-12, UniProt P0AE70); assay: activation of MazEF endoribonuclease cleavage – biochemical, fluorescence, single-stranded RNA substrate, uHTS hits, dose response (AID 588481); format: functional
[14] = target: T4, Endoribonuclease toxin MazF; assay: substrate-only fluorescence increase artefacts – biochemical, single-stranded RNase substrate, counter-screen for MazEF activator project, dose response (AID 588502); format: functional
[15] = target: Intestinal-type alkaline phosphatase (Homo sapiens, UniProt P09923); assay: inhibition of human intestinal alkaline phosphatase – biochemical, dose response (AID 488876); format: functional
[16] = target: Alkaline phosphatase, tissue-nonspecific isozyme (Homo sapiens, UniProt P05186); assay: TNAP enzyme inhibition by screening hits, dose response, selectivity assay for mouse IAP inhibitor project, biochemical, human TNAP, uHTS hits (AID 488906); format: functional
[17] = target: Intestinal-type alkaline phosphatase (Mus musculus, UniProt P24822); assay: PubChem AID 488785; format: functional
Large T antigen = Large T antigen (Simian virus 40, UniProt P03070); format: functional, Betapolyomavirus macacae;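 also: Confirmatory-stage PubChem screen for compounds that inhibit SV40 T antigen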
Sequence of Large T antigen (P03070 whole entry): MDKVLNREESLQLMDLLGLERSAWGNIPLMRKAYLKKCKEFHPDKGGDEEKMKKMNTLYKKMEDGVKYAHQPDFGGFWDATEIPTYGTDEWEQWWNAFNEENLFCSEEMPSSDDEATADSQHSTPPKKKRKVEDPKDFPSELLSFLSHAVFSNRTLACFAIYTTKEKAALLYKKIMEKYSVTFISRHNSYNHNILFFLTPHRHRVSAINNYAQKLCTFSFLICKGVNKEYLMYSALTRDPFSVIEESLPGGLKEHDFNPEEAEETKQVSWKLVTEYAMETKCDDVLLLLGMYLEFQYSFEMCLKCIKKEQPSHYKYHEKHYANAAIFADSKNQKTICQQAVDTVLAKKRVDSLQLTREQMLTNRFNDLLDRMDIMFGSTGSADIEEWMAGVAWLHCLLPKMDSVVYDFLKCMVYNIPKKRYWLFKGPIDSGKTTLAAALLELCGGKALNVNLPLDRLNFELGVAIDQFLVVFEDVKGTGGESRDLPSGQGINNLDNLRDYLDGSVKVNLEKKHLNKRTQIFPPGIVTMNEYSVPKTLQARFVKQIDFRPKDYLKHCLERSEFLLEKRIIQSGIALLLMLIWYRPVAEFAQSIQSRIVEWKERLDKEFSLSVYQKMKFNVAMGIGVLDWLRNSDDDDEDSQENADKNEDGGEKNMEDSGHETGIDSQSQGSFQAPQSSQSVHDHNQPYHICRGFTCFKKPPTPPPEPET

T4 sequence (P0AE70 whole entry): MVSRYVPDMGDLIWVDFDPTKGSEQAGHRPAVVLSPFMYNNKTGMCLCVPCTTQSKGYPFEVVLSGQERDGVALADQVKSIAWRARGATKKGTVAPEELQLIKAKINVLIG
Sequence of Alkaline phosphatase, tissue-nonspecific isozyme (P05186 whole entry): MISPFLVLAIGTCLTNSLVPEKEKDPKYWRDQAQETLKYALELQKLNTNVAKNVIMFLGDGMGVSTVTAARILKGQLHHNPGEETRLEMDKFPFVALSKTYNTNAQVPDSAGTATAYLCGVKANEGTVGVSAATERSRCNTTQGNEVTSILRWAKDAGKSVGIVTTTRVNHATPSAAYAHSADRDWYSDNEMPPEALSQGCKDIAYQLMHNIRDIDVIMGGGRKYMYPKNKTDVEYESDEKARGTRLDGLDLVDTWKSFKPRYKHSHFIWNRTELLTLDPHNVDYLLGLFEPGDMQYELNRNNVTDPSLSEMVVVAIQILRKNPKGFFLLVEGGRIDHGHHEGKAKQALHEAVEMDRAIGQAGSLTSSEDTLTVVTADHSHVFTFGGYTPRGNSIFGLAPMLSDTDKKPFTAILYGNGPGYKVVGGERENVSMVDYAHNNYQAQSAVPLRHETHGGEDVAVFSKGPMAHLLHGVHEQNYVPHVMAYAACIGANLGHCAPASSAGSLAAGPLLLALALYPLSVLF
Sequence of Lysine-specific demethylase 4C (Q9H3R0 whole entry): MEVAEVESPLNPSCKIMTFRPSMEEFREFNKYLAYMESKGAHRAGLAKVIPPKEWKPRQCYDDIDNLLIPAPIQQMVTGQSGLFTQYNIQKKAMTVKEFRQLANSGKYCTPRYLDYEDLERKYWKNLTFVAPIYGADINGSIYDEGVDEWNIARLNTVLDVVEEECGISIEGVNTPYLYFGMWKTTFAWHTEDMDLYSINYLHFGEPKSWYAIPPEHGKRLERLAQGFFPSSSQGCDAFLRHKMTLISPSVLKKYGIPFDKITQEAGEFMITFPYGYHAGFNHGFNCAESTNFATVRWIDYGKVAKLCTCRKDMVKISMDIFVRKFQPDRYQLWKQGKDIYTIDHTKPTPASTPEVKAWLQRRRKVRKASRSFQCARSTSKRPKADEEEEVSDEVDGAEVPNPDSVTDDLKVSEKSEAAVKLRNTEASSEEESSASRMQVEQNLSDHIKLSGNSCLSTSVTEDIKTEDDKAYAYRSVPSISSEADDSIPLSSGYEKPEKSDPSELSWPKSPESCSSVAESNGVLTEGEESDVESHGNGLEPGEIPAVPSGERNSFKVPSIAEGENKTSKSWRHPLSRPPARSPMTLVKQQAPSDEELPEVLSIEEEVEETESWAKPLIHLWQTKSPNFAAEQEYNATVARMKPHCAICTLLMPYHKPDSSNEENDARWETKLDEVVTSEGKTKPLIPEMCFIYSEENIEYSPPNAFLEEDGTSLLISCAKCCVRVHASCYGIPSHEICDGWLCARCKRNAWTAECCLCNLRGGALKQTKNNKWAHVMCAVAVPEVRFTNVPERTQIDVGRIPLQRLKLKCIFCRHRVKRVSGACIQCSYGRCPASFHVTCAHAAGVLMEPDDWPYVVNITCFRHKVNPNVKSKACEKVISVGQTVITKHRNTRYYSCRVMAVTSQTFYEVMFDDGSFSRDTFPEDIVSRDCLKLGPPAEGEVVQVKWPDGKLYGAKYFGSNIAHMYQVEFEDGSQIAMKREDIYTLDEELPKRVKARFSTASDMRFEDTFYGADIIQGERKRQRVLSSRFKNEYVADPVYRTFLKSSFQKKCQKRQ
Sequence of Paired box protein Pax-8 (Q06710 whole entry): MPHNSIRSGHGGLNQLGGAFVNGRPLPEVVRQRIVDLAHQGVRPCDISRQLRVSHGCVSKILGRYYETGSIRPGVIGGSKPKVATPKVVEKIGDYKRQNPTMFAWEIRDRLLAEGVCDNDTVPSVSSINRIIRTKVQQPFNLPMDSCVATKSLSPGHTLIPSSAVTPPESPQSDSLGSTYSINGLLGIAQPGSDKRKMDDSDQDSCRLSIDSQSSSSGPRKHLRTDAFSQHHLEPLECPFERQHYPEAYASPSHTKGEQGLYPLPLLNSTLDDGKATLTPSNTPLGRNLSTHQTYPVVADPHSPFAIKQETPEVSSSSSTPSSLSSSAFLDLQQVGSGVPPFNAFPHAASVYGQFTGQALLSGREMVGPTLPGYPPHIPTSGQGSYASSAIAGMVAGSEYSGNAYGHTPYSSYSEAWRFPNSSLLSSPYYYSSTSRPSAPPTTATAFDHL
Sequence of Intestinal-type alkaline phosphatase (Homo sapiens, UniProt P09923) (P09923 whole entry): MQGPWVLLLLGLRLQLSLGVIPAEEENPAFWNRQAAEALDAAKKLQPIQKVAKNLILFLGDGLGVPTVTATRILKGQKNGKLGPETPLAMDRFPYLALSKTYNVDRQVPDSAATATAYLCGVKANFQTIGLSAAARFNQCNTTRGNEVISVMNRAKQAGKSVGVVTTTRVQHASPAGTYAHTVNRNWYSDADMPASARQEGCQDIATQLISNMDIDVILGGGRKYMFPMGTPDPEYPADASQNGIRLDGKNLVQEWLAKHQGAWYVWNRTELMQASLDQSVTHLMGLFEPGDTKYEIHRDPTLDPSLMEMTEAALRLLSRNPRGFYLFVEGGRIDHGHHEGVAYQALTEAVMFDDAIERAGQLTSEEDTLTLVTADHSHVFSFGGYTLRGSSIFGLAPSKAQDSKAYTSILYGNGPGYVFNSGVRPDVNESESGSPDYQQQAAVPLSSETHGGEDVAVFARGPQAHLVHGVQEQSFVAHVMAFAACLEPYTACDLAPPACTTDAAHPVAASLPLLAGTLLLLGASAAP
Sequence of Intestinal-type alkaline phosphatase (Mus musculus, UniProt P24822) (P24822 whole entry): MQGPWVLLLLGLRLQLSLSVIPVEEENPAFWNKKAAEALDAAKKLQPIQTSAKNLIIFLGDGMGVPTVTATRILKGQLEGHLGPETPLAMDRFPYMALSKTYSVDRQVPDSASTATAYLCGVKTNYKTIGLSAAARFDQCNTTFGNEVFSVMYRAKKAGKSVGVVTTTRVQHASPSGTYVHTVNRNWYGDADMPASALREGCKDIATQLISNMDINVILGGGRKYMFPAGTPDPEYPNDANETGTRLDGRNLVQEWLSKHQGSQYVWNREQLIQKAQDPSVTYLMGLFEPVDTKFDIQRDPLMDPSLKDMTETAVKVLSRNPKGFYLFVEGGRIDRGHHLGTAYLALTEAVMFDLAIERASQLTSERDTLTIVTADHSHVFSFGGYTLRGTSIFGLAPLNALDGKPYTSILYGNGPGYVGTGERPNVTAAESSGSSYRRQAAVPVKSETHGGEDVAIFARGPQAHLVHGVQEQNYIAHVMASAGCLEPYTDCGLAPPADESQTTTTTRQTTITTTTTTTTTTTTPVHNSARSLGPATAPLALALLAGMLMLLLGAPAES

Structure (SMILES): Cc1cc(C)c2nc(C)cc(N/N=C/c3ccc(O)cc3)c2c1
- EC50 [1]: 5.11 µM (inconclusive)
- EC50 (BJ [2]): 2.78 µM (inconclusive)
- AC50 [3]: 0.939 µM (active)
- AC50 [4]: 50.5 µM (active)
- CC50 [5]: 13.3 µM (active)
- EC50 (BJ [6]): 0.555 µM (active)
- IC50 [7]: 18.1 µM (active)
- IC50 [8]: 18.2 µM (active)
- EC50 (BJ [9]): 2.56 µM (inconclusive)
- EC50 (BJ [10]): 5.87 µM (active)
- AC50 (Paired box protein Pax-8): 9.08 µM (active)
- EC50 [11]: 5.96 µM (active)

Structure (SMILES): Cc1ccc(-c2csc(NC(=O)CSc3nc(C)cc(O)n3)n2)cc1
- AC50 [12]: 10.6 µM (active)

Structure (SMILES): Cc1c(C=NNC(=O)c2ccc(Br)cc2)c2ccccn2c1C(=O)c1ccncc1
- EC50 [13]: > 99 µM (inactive)
- EC50 [14]: > 99 µM (inactive)

Structure (SMILES): O=S(=O)(c1ccc(NC(=S)N/N=C/c2ccc(O)c(O)c2)cc1)N1CCOCC1
- IC50 [15]: < 0.195 µM (active)
- IC50 [16]: 15.1 µM (active)
- IC50 [17]: 2.84 µM (active)
- IC50 (Large T antigen): 38.4 µM (active)
